Where a SMILES comes first, the peptide text is derived from it.
What was measured:
[1] = molecular target: T1, ACE (from rabbit lung) (Oryctolagus cuniculus, UniProt P12822); assay: In vitro ACE inhibitory activity assay (HHL substrate, hippuric acid by HPLC); format: biochemical; details: synthetic peptides; read-out: IC50 for ACE inhibition (converted)
T1 construct: ACE (from rabbit lung); purchased Sigma Chemicals Co., Ltd. (St. Louis, MO, USA); host or cells: rabbit lung (tissue of origin)
T1 sequence (P12822 34-1310): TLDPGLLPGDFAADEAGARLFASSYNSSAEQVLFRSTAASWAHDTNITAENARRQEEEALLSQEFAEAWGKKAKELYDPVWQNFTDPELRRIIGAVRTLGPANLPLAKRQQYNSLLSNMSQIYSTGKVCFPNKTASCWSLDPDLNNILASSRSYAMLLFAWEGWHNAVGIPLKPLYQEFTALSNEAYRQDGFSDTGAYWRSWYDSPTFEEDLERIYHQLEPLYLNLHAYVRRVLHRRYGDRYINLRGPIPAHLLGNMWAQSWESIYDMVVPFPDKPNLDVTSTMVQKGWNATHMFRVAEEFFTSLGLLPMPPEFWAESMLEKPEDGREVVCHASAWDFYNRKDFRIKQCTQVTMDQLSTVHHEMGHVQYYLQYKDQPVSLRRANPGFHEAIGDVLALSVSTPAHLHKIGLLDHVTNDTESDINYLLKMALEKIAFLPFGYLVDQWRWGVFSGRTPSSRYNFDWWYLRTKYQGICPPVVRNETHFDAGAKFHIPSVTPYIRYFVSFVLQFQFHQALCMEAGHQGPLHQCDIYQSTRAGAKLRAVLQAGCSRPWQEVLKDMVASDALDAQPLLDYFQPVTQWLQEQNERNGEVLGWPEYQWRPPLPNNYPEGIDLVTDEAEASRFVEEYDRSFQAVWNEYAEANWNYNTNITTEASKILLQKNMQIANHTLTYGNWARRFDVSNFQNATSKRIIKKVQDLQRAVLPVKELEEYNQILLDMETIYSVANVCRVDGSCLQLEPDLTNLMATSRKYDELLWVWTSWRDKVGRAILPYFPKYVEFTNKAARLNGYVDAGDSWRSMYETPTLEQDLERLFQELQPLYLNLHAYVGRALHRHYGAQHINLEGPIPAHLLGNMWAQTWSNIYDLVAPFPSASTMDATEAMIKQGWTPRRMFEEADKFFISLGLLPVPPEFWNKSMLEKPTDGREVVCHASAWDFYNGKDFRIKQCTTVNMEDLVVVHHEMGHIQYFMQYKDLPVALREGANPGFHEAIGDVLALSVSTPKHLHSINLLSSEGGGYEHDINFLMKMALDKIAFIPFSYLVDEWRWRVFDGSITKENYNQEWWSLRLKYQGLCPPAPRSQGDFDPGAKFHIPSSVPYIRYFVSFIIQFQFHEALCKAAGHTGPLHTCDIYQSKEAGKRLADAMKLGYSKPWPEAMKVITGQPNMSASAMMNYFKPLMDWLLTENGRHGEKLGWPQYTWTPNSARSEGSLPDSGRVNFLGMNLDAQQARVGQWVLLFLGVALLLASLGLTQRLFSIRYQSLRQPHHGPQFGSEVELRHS
From the text: (§1) Raw sardines (S. pilchardus) were purchased from Xiangtai Fisheries Co., Ltd. (Haikou, Hainan, China). ACE (from rabbit lung) and N-Hippuryl-His-Leu (HHL) were purchased from Sigma Chemicals Co., Ltd. (St. Louis, MO, USA). Dispase (enzyme activity 200 U/mg) was purchased from Adamas Chemicals Co., Ltd. (Shanghai, China). Alkaline protease (enzyme activity 200 U/mg) and borate buffer solution (BBS, pH8.4, containing 0.1 M H3BO3 and 0.025 M Na2B4O7) were purchased from Shanghai Yuanye Biotechnology Co., Ltd. (Shanghai, China). Trifluoroacetic acid (TFA), formic acid (FA), and acetonitrile (ACN) were obtained from Thermo Fisher Scientific Co., Ltd. (Waltham, MA, USA). The materials used for HPLC analysis were of HPLC grade, and all other reagents were of analytical grade. Artificial gastric fluid (10 g/L pepsin) and artificial intestinal fluid (10 g/L pancreatic enzyme) were purchased from Guangzhou Testing Technology Co., Ltd. (Guangzhou, China).
The ACE inhibitory activity assay was determined according to a previous report with some modifications. HHL was dissolved in BBS to make a solution with a concentration of 5 mmol/L. The ACE was dissolved in BBS at a concentration of 0.06 U/mL. The reaction system was as follows: 20 μL of 0.06 U/mL ACE solution and 40 μL of sample solution or control (BBS) was added. After 5 min in a water bath at 37 °C, 50 μL of 5 mM HHL was added and incubated at 37 °C for 1 h. At the end of the incubation, 50 μL of […] was added to terminate the reaction. 500 μL water was added to the reaction system. Hippuric acid (HA) was quantified after being released from the system using HPLC and InertSustain C18 (5 μm, 4.6 × 250 mm). HPLC analysis conditions were as follows: the UV wavelength was constant at 228 nm, the mobile phase was 0.1% TFA/25% ACN in water, the flow rate was 1 mL/min, and the injection volume was 10 μL. The ACE inhibition activity was calculated by the following equation:(1) ACE Inhibition Activity=∆A−∆B/∆A × 100, where ΔA represented the peak area of HA in the control group; ΔB represented the peak area of the sample group.
All experiments were performed in triplicate (except for the molecular docking results), and data were reported as mean ± SD (n ≥ 3). An ANOVA test using SPSS 26.0 (SPSS Corporation, Chicago, IL, USA) was used to analyze the experimental data. The IC50 value was defined as the half concentration of the peptide required to inhibit the ACE activity, and the IC50 of the ACE inhibitory peptides was determined by calculating the ACE inhibition rate at various sample concentrations using the SPSS 26.0 probit regression model.

[2] = Digestive stability in artificial intestinal fluid; format: in vitro ADME; details: 37 °C, 2.0 h
From the text: as §1
Peptides were quantified using HPLC and InertSustain C18 (5 μm, 4.6 × 250 mm). For FIGR, HPLC analysis conditions were as follows: the UV wavelength was constant at 228 nm, the mobile phase was 0.1% TFA/15% ACN in water, the flow rate was 1 mL/min, and the injection volume was 10 μL. For rest peptides, the mobile phase was 0.1% TFA/25% ACN in water, and the other conditions were the same as FIGR.
The peptide solutions of 0.10, 0.25, 0.50, 1.00, and 1.50 mg/mL were prepared precisely, and the peak areas of the peptides at different concentration conditions were determined. The peak area was plotted as the vertical coordinate and the concentration as the horizontal coordinate to find out the regression equation.
In total, 50 μL of the 10 mg/mL peptide solution was mixed with 450 μL of artificial gastric fluid or artificial intestinal fluid in a water bath at 37 °C for 2.0 h. Then, digestion was stopped in a water bath at 90 °C for 5 min, and the method for determining the peptide content was mentioned in Section 2.10.1. Peptide preservation rate was calculated as (3) Peptide Preservation Rate=Peptide content after treatment/Peptide content before treatment × 100,

[3] = tested on: ACE; details: cited from earlier work
[4] = ABTS+ scavenging activity; details: positive control 10 μg/mL
Method: The 2,2′-Azinobis(3-ethylbenzothiazoline-6-sulfonic acid Ammonium Salt (ABTS) is commonly utilized as a stable free radical source in experiments. It is oxidized by potassium persulfate to produce an ABTS+ radical cation, which has a blue-green hue and absorbs light at 734 nm. When antioxidants are added, the free radical cations are reduced to the colorless ABTS form.
The ABTS+ was generated by mixing 7 mM ABTS and 4.09 mM potassium persulfate in the same volume, and the mixture was kept in the dark at room temperature for 12 h before use. The sample (1 mg/mL) group added sample 0.5 mL with 1 mL of ABTS+ solution. Control group was the same as the sample group, except that the sample was replaced with deionized water. Blank group was added deionized water 0.5 mL with 1 mL of ABTS+ solution. After incubation at room temperature for 6 min, the absorbance was tested at 734 nm. The positive control was 10 μg/mL glutathione (GSH). The sample’s concentration of 1 mg/mL falls within the linear range of the sample’s ABTS scavenging ability. (5) ABTS+Scavenging Activity=(1 − A1−A2/A3) × 100, where A1 is absorbance of sample group, A2 is absorbance of control group, and A3 is absorbance of blank group.

[5] = DPPH radical scavenging activity; details: positive control 10 μg/mL
Method: The 2,2-diphenyl-1-picrylhydrazyl (DPPH) is a stable free radical with a distinct purple color and absorbs light at 517 nm. Antioxidants added to the DPPH solution lead to a reduction in the DPPH radical to a non-radical form, resulting in a decrease in the solution’s absorbance. […] This principle of DPPH radical scavenging is commonly utilized for evaluating the antioxidant capacity of various substances, such as peptides.
Sample (1 mg/mL) group was aliquots of samples being mixed 1:1 (v/v) with 0.1 mmol/L DPPH (in ethanol absolute); control group was aliquots of samples being mixed 1:1 (v/v) with ethanol absolute; and blank group was aliquots of ethanol absolute being mixed 1:1 (v/v) with 0.1 mmol/L DPPH (in ethanol absolute). The mixture was shaken and kept for 40 min at room temperature and protected from light. The radical scavenging activity of DPPH radical was determined by measuring the absorbance at 517 nm. […] In this study, the sample concentration was 1 mg/mL, which was determined to be within the linear range of the concentration of the sample and its DPPH scavenging ability. The ability of the sample to scavenge DPPH radical was calculated according to the following equation:(4) DPPH Radical Scavenging Activity=(1 − Ai−Aj/A0) × 100, where Ai is absorbance of sample group, Aj is absorbance of control group, and A0 is absorbance of blank group.

[6] = Fe2+-chelating ability (ferrozine); details: positive control 10 μg/mL
Method: When Fe^2+ and ferrozine are combined, they form a stable magenta-colored complex. The presence of chelators in the solution can cause them to bind with the Fe^2+ ions, thereby preventing the formation of the Fe^2+-ferrozine complex. As a result, the amount of Fe^2+-ferrozine complex in the solution decreases, leading to a decrease in the absorbance of the solution at 562 nm.
The sample (1 mg/mL) group was a 1 mL sample mixed with 3.7 mL deionized water and 0.1 mL of FeCl2 (2 mmol/L) and 0.2 mL of ferrozine (5 mmol/L). The mixture was protected from light and kept at room temperature for 10 min prior to measuring the absorbance at 562 nm. Control group contained everything, except it used deionized water instead of sample, and blank group used deionized water instead of FeCl2 (2 mmol/L). […] The chelating ability was calculated according to the following equation:(7) Fe^2+-chelating ability=(1 − A1−A2/A3) × 100, where A1 is absorbance of sample group, A2 is absorbance of blank group, and A3 is absorbance of control group.

[7] = Hydroxyl radical scavenging activity (salicylic acid); details: positive control 10 μg/mL
Method: The hydroxyl radical (·OH) is a free radical that comprises an oxygen atom and a hydrogen atom (·OH). The principle behind measuring hydroxyl radical scavenging activity involves the reaction between the hydroxyl radical and salicylic acid, which produces 2, 3-dihydroxybenzoic acid that can be quantified by measuring the absorbance at 510 nm.
The 1 mL of sample (1 mg/mL) was mixed with 1 mL of 4.5 mmol/L of ferrous sulfate and 1 mL of 30% H2O2 (v/v). The reaction mixture was standing for 10 min after vortexing. Then, 1 mL of 4.5 mmol/L salicylic acid was added and subsequently vortexed. After a water bath at 37 °C for 30 min, the absorbance of the mixture was measured at 510 nm (As). For the control, deionized water was added instead of salicylic acid (Ac). Vitamin C (Vc) was used as a positive control at 10 μg/mL. Hydroxyl radical scavenging activity was calculated as follows:(6) Hydroxyl Radical Scavenging Activity=(1 − Ac−As/Ac) × 100,

Molecule	IC50 [1]	Retention rate after intestinal digestion [2]	also measured
CC(C)C[C@H](NC(=O)[C@H](C)NC(=O)[C@H](CCCNC(=N)N)NC(=O)[C@@H](N)Cc1ccccc1)C(=O)O [FRAL] (H-FRAL-OH; N-terminus and C-terminus assumed)	1310 µM	10.83% ± 0.44	
AEYLCEAC			IC50 [3]: 4290 µM
CC[C@H](C)[C@H](NC(=O)[C@@H](N)Cc1ccccc1)C(=O)N[C@@H](CC(C)C)C(=O)N[C@@H](CCCNC(=N)N)C(=O)O [FILR] (H-FILR-OH; N-terminus and C-terminus assumed)		86.23% ± 1.60	
CC(C)C[C@H](NC(=O)[C@H](CCCNC(=N)N)NC(=O)[C@H](CCC(N)=O)NC(=O)[C@@H](N)Cc1ccccc1)C(=O)O [FQRL] (H-FQRL-OH; N-terminus and C-terminus assumed)		25.62% ± 2.01	
CC(C)C[C@H](NC(=O)[C@@H](N)CCCCN)C(=O)N[C@@H](Cc1ccccc1)C(=O)O [KLF] (H-Lys-Leu-Phe-OH; N-terminus and C-terminus assumed)	2190 µM	88.92% ± 2.60	
N[C@@H](CCC(=O)N[C@@H](CS)C(=O)NCC(=O)O)C(=O)O [GSH, Glutathione]			ABTS scavenging capacity [4]: 9.01% ± 0.69; DPPH scavenging capacity [5]: 33.25% ± 1.44
O=C([O-])CN(CCN(CC(=O)O)CC(=O)O)CC(=O)[O-].[Na+].[Na+] [EDTA-2Na]			Fe2+ chelating capacity [6]: 28.81% ± 1.13
O=C1O[C@H]([C@@H](O)CO)C(O)=C1O [Vc, Vitamin C]			Hydroxyl radical scavenging ability [7]: 9.39% ± 0.54
CC(C)C[C@H](NC(=O)[C@H](Cc1ccccc1)NC(=O)[C@@H](N)CCCCN)C(=O)O [KFL] (H-Lys-Phe-Leu-OH; N-terminus and C-terminus assumed)	1500 µM	73.36% ± 0.86	
RWDISQPY			ACE inhibition pattern [3]: Competitive
CC[C@H](C)[C@H](NC(=O)[C@@H](N)Cc1ccccc1)C(=O)NCC(=O)N[C@@H](CCCNC(=N)N)C(=O)O [FIGR] (H-FIGR-OH; N-terminus and C-terminus assumed)	1220 µM	50.78% ± 0.77	

Source: article PMC10252845, “Identification and Characterization of Novel ACE Inhibitory and Antioxidant Peptides from Sardina pilchardus Hydrolysate” (Foods, 2023)
